ChEMBL document CHEMBL1152971, “Cycloartane triterpenoids from Kleinhovia hospita” (J Nat Prod, 2009)

System: HepG2
Assay: Hepatoprotective activity against nitrofurantoin-induced cytotoxicity in human HepG2 cells after 2 hrs by MTT assay
Assay type: functional, cell-based
Conditions: HepG2, 2 h

Structure (SMILES) | EC50
CO[C@H]1O[C@]2(C=C(C)C(=O)O2)C[C@@H]1[C@H]1CC[C@@]2(C)[C@@H]3CC[C@H]4C(C)(C)C(=O)C=C[C@@]45C[C@@]35CC[C@]12C | 123 µM
CC(C)=CC(=O)C[C@@H](C)[C@H]1CC[C@@]2(C)[C@@H]3CC[C@H]4C(C)(C)C(=O)C=C[C@@]45C[C@@]35CC[C@]12C | 109 µM
CC(C)=CC(=O)C[C@@H](C)[C@H]1CC[C@@]2(C)[C@@H]3CC[C@H]4[C@](C)(C(=O)O)[C@@H](O)C[C@H](O)[C@@]45C[C@@]35CC[C@]12C [GARDENOLIC ACID B] | 66.4 µM
COc1cc(C2Oc3cc([C@H]4Oc5cc(O)cc(O)c5C(=O)[C@@H]4O)ccc3OC2CO)ccc1O (some centres undefined) [SILIBININ] | 75.7 µM
